B1: Annexin V-Alexa750: Annexin V (Biovision) conjugated to Alexa750-NHS at a labeling ratio of 2:1 (conjugate, UniProt P08758 2-320, looked up)
Annexin A5: AQVLRGTVTDFPGFDERADAETLRKAMKGLGTDEESILTLLTSRSNAQRQEISAAFKTLFGRDLLDDLKSELTGKFEKLIVALMKPSRLYDAYELKHALKGAGTNEKVLTEIIASRTPEELRAIKQVYEEEYGSSLEDDVVGDTSGYYQRMLVVLLQANRDPDAGIDEAQVEQDAQALFQAGELKWGTDEEKFITIFGTRSVSHLRKVFDKYMTISGFQIEETIDRETSGNLEQLLLAVVKSIRSIPAYLAETLYYAMKGAGTDDHTLIRVMVSRSEIDLFNIRKEFRKNFATSLYSMIKGDTSGDYKKALLLLCGEDD
modifications: Alexa Fluor 750 label

Assays:
[1] = tested on: HeLa cells; assay: FACS staining of camptothecin-treated apoptotic HeLa cells; format: cell-based
Description: HeLa cells (5×10^5 in 10 cm plates) maintained in DMEM with 10% FBS were contacted with 5 μM camptothecin to induce apoptosis. Cell staining by FITC-labeled Annexin V (Abcam, Cambridge, Mass.) or Cy5.5-labeled chicken LDH (1 μL) prepared as described in Example 1, was measured by fluorescence-activated cell sorting (FACS) analysis (with cells in annexin binding buffer (Abcam)) 12 h, 24 h, and 48 h later. Untreated HeLa cells served as negative controls.
Staining by Annexin V is known to require the presence of calcium. […] HeLa cells treated with camptothecin to induce apoptosis as in Example 9 were stained with FITC-labeled Annexin V (Abcam, Cambridge, Mass.) or Cy5.5-labeled chicken LDH in calcium-containing Annexin buffer or in calcium-free PBS. Stained cells were analyzed by FACS analysis as in Example 9.
HeLa cells (5×10^5 in 10 cm plates) maintained in DMEM with 10% FBS were contacted with 5 μM camptothecin to induce apoptosis. Cell staining was done in the media: (i) annexin buffer, (ii) DMEM supplemented with 1% FBS; (iii) DMEM supplemented with 2% FBS; (iii) DMEM supplemented with 5% FBS; (iv) DMEM supplemented with 10% FBS. For cell staining FITC-labeled Annexin V (Abcam, Cambridge, Mass.) or Cy5.5-labeled chicken LDH (1 μL) prepared as described in Example 1, was used to for FACS analysis (cells in annexin binding buffer (Abcam)) 48 h later. Untreated HeLa cells served as negative controls. […]

[2] = tested on: THP-1 cells; assay: Staining of THP-1 cells treated with HDAC inhibitor LAQ824; format: cell-based; conditions: THP-1, LAQ824 50 nM, 18 hrs
Description: To correlate cLDHB staining with other measures of apoptosis, a fluorescent probe that binds to activated caspases (pan-caspase-FLICA, Immunochemistry Tech) was used. THP-1 cells were treated with the HDAC inhibitor LAQ824 (50 nM, 18 hrs) to induce apoptosis.
Similarly, we asked whether the […] proteins performed comparably to purified recombinant LDH.

[3] = tested on: apoptotic cells; assay: Staining requirements (temperature, calcium) of cLDHB and Annexin V; format: cell-based
Description: To determine if cLDHB is actively transported into cells, staining was performed at room temperature and at 4° C.
A major limitation of Annexin V staining is the requirement for supra-physiological concentrations of calcium (Tait, J. F., D. F. Gibson, and C. Smith, Anal Biochem, 2004. 329: 112-9). To determine whether cLDHB staining required calcium, Annexin V and cLDHB staining was performed in PBS (without calcium or magnesium) or in Annexin Binding Buffer (with 2.5 mM calcium).

[4] = tested on: apoptotic cells; assay: Homogeneous multiwell apoptosis assay in normal growth medium; format: cell-based; conditions: e.g., RPMI with 10% FBS, flow cytometry or High-Content Microscopy
[5] = tested on: adherent and suspension cancer cell lines (e.g., HeLa, RS(4;11), THP-1, MDA-MB231); assay: Concordance of Annexin V and cLDHB staining across cancer cell lines; format: cell-based; conditions: apoptosis induced by camptothecin, doxorubicin, HDAC inhibitors
[6] = tested on: non-transformed rat cardiomyocytes; assay: Concordance of staining in doxorubicin-treated cardiomyocytes; format: cell-based; conditions: apoptosis induced with doxorubicin
[7] = tested on: hepatocyte apoptosis; assay: In vivo NIR imaging of fulminant hepatic failure (anti-Fas antibody); parameters: species or system mice; conditions: liver region; 10 μg probe; 25 hrs after probe injection
Description: This model was used to compare LDH to Annexin V for near infrared (NIR) imaging of apoptosis. Alexa750-NHS was conjugated to Annexin V (Biovision) and chicken LDHB (XpressBio) at a labeling ratio of 2:1 per mole of protein based on prior optimization. A total of 10 male NCr nude mice were injected with 5 μg of anti-Fas antibody (Jo2, Pharmingen), and 10 animals were injected with 5 μg of an isotype-matched control antibody. Two hours later, mice were injected with 10 μg of either LDH-Alexa750 or Annexin V-Alexa750. Mice underwent NIR fluorescence imaging (IVIS Spectrum, Caliper) 25 hrs after probe injection (FIG. 8A). After spectral unmixing and background subtraction (Living Images software package), regions of interest were used to quantify fluorescence localized to the liver region (FIG. 8A), as indicated with arrowheads.

[8] = tested on: Ku812-Luc+ (BCR-ABL+CML blast crisis) cells; assay: In vivo imaging of chemotherapy-induced apoptosis (AMN107); parameters: species or system mice; conditions: 20 μg probe after 3 doses of AMN107
Description: Subcutaneous tumors were established using Ku812-Luc+ (BCR-ABL+CML blast crisis) cells in NCr nude mice. When tumors were ˜1 cm, mice underwent bioluminescence imaging (BLI) to determine baseline tumor burden, followed by treatment with either AMN107 (nilotinib) at 100 mg/kg intraperitoneally (IP), or with vehicle. After 3 doses, animals were injected with 20 μg of LDH-Alexa750. Fluorescence imaging (FL) was performed 24 and 48 hrs after probe injection (day 4 and 5 of treatment) and BLI was repeated on day 5 of treatment (FIG. 9A).

Row | Molecule | change of staining with increasing amounts of FBS (FACS) ([1]; HeLa treated with camptothecin) | stability of staining after washing ([1]; washed with 6 changes of PBS) | staining of live cells negative for FLICA staining [2] | staining at room temperature versus 4° C. [3] | staining in PBS (without calcium or magnesium) compared to Annexin Binding Buffer (2.5 mM calcium) [3] | staining / quantification of apoptosis with probe added directly to normal growth medium [4] | concordance in staining with Annexin V [5] | concordance in staining with Annexin V [6] | mean signal intensity (photons/sec/ROI) of anti-Fas antibody treated animals above IgG control antibody treated animals [7] | NIR fluorescence signal from the tumors in AMN107-treated animals compared to vehicle-treated controls [8]
1 | cLDHB: chicken LDHB used as fluorescently labeled probe; fluorochrome not stated at the place | no significant changes | entirely stable | negative | Identical results | identical under both conditions | apoptosis can be quantified | concordance in staining | Concordant staining |  | 
2 | LDH-Alexa750: chicken LDHB (XpressBio) conjugated to Alexa750-NHS at a labeling ratio of 2:1 |  |  |  |  |  |  |  |  | 4.2 fold | > 4 fold
3 | B1 |  |  |  |  |  |  |  |  | 1.8 fold | 

Reference: patent US8999661B2, “Compositions for detecting cell death and methods of use thereof” (Dana-Farber Cancer Institute, Inc., priority 2008, dated 2015)
